# Measured values: patent publication US9073881B2, “Benzoic acid derivatives” (HOFFMANN-LA ROCHE INC., priority 2011, dated 2015)
# Target: Human eIF4E (Homo sapiens (Human), UniProt P06730)
# Assay: Human eIF4E/4G binding assay (time-resolved fluorescence, HH-eIF4E and biotin-labeled 4G2 peptide)
# Settings: inhibition of binding of His-tagged human eIF4E (aa 28-217) to biotin-labeled 4G2 peptide
# Sequence of Human eIF4E (P06730 28-217): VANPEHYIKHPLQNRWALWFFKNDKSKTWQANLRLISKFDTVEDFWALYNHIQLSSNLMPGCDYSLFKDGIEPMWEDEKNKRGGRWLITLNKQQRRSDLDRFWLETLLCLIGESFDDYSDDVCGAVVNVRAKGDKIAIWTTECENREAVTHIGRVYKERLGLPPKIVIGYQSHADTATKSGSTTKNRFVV
row,Compound,IC50 [µM]
1,"O=C(O)c1cc(-c2nc(-c3ccc(Cl)c(Cl)c3)cs2)ccc1-c1ccc(C(F)(F)F)cc1Cl [Example 127, 2′-Chloro-4-[4-(3,4-dichloro-phenyl)-thiazol-2-yl]-4′-trifluoromethyl-biphenyl-2-carboxylic acid]",1.6
2,"O=C(O)c1cc(-c2nc(-c3ccc(Cl)c(Cl)c3)cs2)ccc1-c1cc(C(F)(F)F)ccc1Cl [Example 128, 2′-Chloro-4-[4-(3,4-dichloro-phenyl)-thiazol-2-yl]-5′-trifluoromethyl-biphenyl-2-carboxylic acid]",1.1
3,"O=C(O)c1cc(-c2nc(-c3ccc(Cl)c(Cl)c3)cs2)ccc1-c1ccc(F)cc1 [Example 129, 4-[4-(3,4-Dichloro-phenyl)-thiazol-2-yl]-4′-fluoro-biphenyl-2-carboxylic acid]",2.6
4,"O=C(O)c1cc(-c2nc(-c3ccc(Cl)c(Cl)c3)cs2)ccc1-c1cc(F)ccc1F [Example 131, 4-[4-(3,4-Dichloro-phenyl)-thiazol-2-yl]-2′,5′-difluoro-biphenyl-2-carboxylic acid]",1.8
5,"O=C(O)c1cc(-c2nc(-c3ccc(Cl)c(Cl)c3)cs2)ccc1-c1ccc(F)cc1F [Example 132, 4-[4-(3,4-Dichloro-phenyl)-thiazol-2-yl]-2′,4′-difluoro-biphenyl-2-carboxylic acid]",5.6
6,"O=C(O)c1cc(-c2nc(-c3ccc(Cl)c(Cl)c3)cs2)ccc1-c1cc(F)cc(F)c1F [Example 133, 4-[4-(3,4-Dichloro-phenyl)-thiazol-2-yl]-2′,3′,5′-trifluoro-biphenyl-2-carboxylic acid]",1.6
7,"O=C(O)c1cc(-c2nc(-c3ccc(Cl)c(Cl)c3)cs2)ccc1-c1ccc(F)cc1Cl [Example 134, 2′-Chloro-4-[4-(3,4-dichloro-phenyl)-thiazol-2-yl]-4′-fluoro-biphenyl-2-carboxylic acid]",1.4
8,"O=C(O)c1cc(-c2nc(-c3ccc(Cl)c(Cl)c3)cs2)ccc1-c1ccccc1F [Example 137, 4-[4-(3,4-Dichloro-phenyl)-thiazol-2-yl]-2′-fluoro-biphenyl-2-carboxylic acid]",3.6
9,"O=C(O)c1cc(-c2nc(-c3ccc(Cl)c(Cl)c3)cs2)ccc1-c1cccc(F)c1F [Example 138, 4-[4-(3,4-Dichloro-phenyl)-thiazol-2-yl]-2′,3′-difluoro-biphenyl-2-carboxylic acid]",1.9
10,"Cc1ccc(F)c(-c2ccc(-c3nc(-c4ccc(Cl)c(Cl)c4)cs3)cc2C(=O)O)c1Cl [Example 139, 2′-Chloro-4-[4-(3,4-dichloro-phenyl)-thiazol-2-yl]-6′-fluoro-3′-methyl-biphenyl-2-carboxylic acid]",1.6
11,"Cc1ccccc1-c1ccc(-c2nc(-c3ccc(Cl)c(Cl)c3)cs2)cc1C(=O)O [Example 141, 4-[4-(3,4-Dichloro-phenyl)-thiazol-2-yl]-2′-methyl-biphenyl-2-carboxylic acid]",5.9
12,"Cc1cscc1-c1ccc(-c2nc(-c3ccc(Cl)c(Cl)c3)cs2)cc1C(=O)O [Example 142, 5-[4-(3,4-Dichloro-phenyl)-thiazol-2-yl]-2-(4-methyl-thiophen-3-yl)-benzoic acid]",4.2
13,"Cc1ccc(Cl)c(-c2ccc(-c3nc(-c4ccc(Cl)c(Cl)c4)cs3)cc2C(=O)O)c1 [Example 144, 2′-Chloro-4-[4-(3,4-dichloro-phenyl)-thiazol-2-yl]-5′-methyl-biphenyl-2-carboxylic acid]",1.1
14,"O=C(O)c1cc(-c2nc(-c3ccc(Cl)c(Cl)c3)cs2)ccc1-c1ccsc1Cl [Example 145, 2-(2-Chloro-thiophen-3-yl)-5-[4-(3,4-dichloro-phenyl)-thiazol-2-yl]-benzoic acid]",2.2
15,"O=C(O)c1cc(-c2nc(-c3ccc(Cl)c(Cl)c3)cs2)ccc1-c1sccc1Cl [Example 146, 2-(3-Chloro-thiophen-2-yl)-5-[4-(3,4-dichloro-phenyl)-thiazol-2-yl]-benzoic acid]",1.7
16,"O=C(O)c1cc(-c2nc(-c3ccc(Cl)c(Cl)c3)cs2)ccc1-c1ccc(Cl)cc1 [Example 147, 4′-Chloro-4-[4-(3,4-dichloro-phenyl)-thiazol-2-yl]-biphenyl-2-carboxylic acid]",1.7
17,"O=C(O)c1cc(-c2nc(-c3ccc(Cl)c(Cl)c3)cs2)ccc1-c1cc(Cl)ccc1Cl [Example 148, 2′,5′-Dichloro-4-[4-(3,4-dichloro-phenyl)-thiazol-2-yl]-biphenyl-2-carboxylic acid]",1.7
18,"O=C(O)c1cc(-c2nc(-c3ccc(Cl)c(Cl)c3)cs2)ccc1-c1cc(Cl)cc(Cl)c1Cl [Example 149, 2′,3′,5′-Trichloro-4-[4-(3,4-dichloro-phenyl)-thiazol-2-yl]-biphenyl-2-carboxylic acid]",> 80
19,"O=C(O)c1cc(-c2nc(-c3ccc(Cl)c(Cl)c3)cs2)ccc1-c1ccc(Cl)cc1Cl [Example 150, 2′,4′-Dichloro-4-[4-(3,4-dichloro-phenyl)-thiazol-2-yl]-biphenyl-2-carboxylic acid]",1.4
20,"O=C(O)c1cc(-c2nc(-c3ccc(Cl)c(Cl)c3)cs2)ccc1-c1ccccc1 [Example 151, 4-[4-(3,4-Dichloro-phenyl)-thiazol-2-yl]-biphenyl-2-carboxylic acid]",5.9
21,"O=C(O)c1cc(-c2nc(-c3ccc(Cl)c(Cl)c3)cs2)ccc1-c1cccc(Cl)c1Cl [Example 152, 2′,3′-Dichloro-4-[4-(3,4-dichloro-phenyl)-thiazol-2-yl]-biphenyl-2-carboxylic acid]",2.1
22,"O=C(O)c1cc(-c2nc(-c3ccc(Cl)c(Cl)c3)cs2)ccc1-c1ccccc1Cl [Example 153, 2′-Chloro-4-[4-(3,4-dichloro-phenyl)-thiazol-2-yl]-biphenyl-2-carboxylic acid]",2.2
